Source: US8697096B2, “Tape preparation comprising etodolac in ionic liquid form” (priority 2007, dated 2014)

How the values were obtained:
[1] = physchem
[2] = Tissue concentration of etodolac by administration route (oral vs transdermal), leg muscle of rat; type: in vivo; settings: 12 mg/kg etodolac suspended in CMC, FIG. 8
Description: In the case of oral administration, four male SD rats (5 weeks old) are used as a group and 12 mg/kg of etodolac suspended in CMC is forced to be taken in by using a probe. The dose is fixed around about 1.1˜1.5 mg/rat. After a lapse of a certain period of time since the forced feeding, an animal is killed by blood removal under anesthesia. Later the leg was amputated, divided into skin and other tissues and the drug concentrations in the muscle tissue and plasma were assayed.
The applied area of the sample was adjusted so that transdermally available amount of etodolac was about 0.7 mg/rat when applied for 24 hours. After a lapse of a certain period of time since the application of the sample, an animal is killed by blood removal under anesthesia. Later the leg was amputated, divided into skin and other tissues and the drug concentrations in the muscle tissue and plasma were assayed.

drug-concentration in the muscle tissue [2] | Compound | pKa [1]
– | CC(O)CN(CC(C)O)CC(C)O (stereo not drawn) [triisopropanolamine] | 8.03
not increased so much | CCc1cccc2c3c([nH]c12)C(CC)(CC(=O)O)OCC3 (stereo not drawn) [etodolac] | 4.65
